The target in one series is T1, human Mu receptor (Homo sapiens, UniProt P35372).
T1 construct: expressed in transfected cells; host or cells: CHO
The series is described as follows: Calcium mobilisation, CHO cells with Mu and Gαqi5. The note with it: calcium mobilisation, at least 3 experiments in duplicate. In kind it is cell-based.

In series [1] the target is T2, human Mu receptor (Mu-RLuc/β-arrestin 2-RGFP) (Homo sapiens, UniProt P35372).
T2 construct: expressed in transfected cells; host or cells: SH-SY5Y (retroviral expression; whole cells)
T2 sequence (P35372+P27652 fused): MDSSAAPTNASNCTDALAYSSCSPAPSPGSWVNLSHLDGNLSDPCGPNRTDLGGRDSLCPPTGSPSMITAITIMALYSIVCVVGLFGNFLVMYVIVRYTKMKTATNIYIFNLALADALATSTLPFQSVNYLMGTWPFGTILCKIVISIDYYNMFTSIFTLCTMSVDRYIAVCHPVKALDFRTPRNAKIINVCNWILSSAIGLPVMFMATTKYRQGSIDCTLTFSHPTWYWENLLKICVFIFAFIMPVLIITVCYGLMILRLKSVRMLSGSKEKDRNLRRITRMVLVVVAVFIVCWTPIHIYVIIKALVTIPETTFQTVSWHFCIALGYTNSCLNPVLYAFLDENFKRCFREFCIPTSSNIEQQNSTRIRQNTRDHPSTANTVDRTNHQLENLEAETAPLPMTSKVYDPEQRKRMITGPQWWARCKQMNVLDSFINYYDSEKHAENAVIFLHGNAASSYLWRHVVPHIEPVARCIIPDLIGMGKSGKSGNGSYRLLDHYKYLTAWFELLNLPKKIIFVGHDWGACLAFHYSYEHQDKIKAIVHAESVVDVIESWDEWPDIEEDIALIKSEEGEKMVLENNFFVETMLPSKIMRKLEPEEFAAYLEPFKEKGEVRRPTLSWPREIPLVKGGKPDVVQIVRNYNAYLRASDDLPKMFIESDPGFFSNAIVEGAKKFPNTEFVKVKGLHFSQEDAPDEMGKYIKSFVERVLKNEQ
T2 sequence (P32121 whole entry partner): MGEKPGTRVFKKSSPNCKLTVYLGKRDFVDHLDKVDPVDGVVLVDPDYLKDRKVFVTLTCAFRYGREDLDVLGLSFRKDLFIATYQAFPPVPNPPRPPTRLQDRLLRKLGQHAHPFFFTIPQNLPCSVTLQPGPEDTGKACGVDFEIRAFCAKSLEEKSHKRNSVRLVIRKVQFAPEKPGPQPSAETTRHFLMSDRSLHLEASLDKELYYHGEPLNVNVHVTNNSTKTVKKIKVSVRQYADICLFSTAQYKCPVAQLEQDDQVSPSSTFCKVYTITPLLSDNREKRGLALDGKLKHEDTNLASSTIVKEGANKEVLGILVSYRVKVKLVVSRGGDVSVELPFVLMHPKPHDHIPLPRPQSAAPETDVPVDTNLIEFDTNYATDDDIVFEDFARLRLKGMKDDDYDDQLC
The series is described as follows: BRET Mu-RLuc/β-arrestin 2-RGFP interaction, SH-SY5Y cells. In kind it is cell-based. Particulars: BRET, SH-SY5Y cells, room temperature; at least 4 experiments in duplicate.

In series [2] the test system is electrically stimulated guinea pig ileum. Description: Electrically stimulated guinea pig ileum bioassay. The note with it: for Kb: Cavia porcellus. Here is the method: With approval of Animal Subjects Review Board of the University of Ferrara and from the Italian Ministry of Health (PROT-186) ileum tissues were taken from male albino guinea pigs of 350–400 g (Pampaloni, Pisa, Italy). The animals were treated in accordance with European guidelines (86/609/ECC) and national regulations (DL 116/92). They were housed in 560 x 320 x 180 mm cages (Techinplast), three per cage, under standard conditions (22°C, 55% humidity, 12 h light/dark cycle, light on at 7:00 h) with food (complete feed for guinea pig, Mucedola, Milano, Italy) and water ad libitum. The day of the experiment the animals were killed with an isofluorane overdose. Bioassay experiments were performed as previously described. The tissues were suspended in 5 ml organ baths containing Krebs solution (composition in mM: NaCl 118.5, KCl 4.7, MgSO4 1.2, KH2PO4 1.2, NaHCO3 25, CaCl2 1.8, glucose 10), hexamethonium bromide 22 μM, benadril 0.34 μM and oxygenated with 95% O2 and 5% CO2. The temperature was set at 37°C. At resting tension, 1 g was applied to the tissues. Tissues were stimulated through two platinum electrodes with a supramaximal rectangular pulse of 1 ms duration, 0.05 Hz frequency, 80V amplitude. Electrically evoked contractions were measured isotonically by means of Basile strain gauge transducers (Basile 7006; srl Ugo Basile, Varese, Italy) and recorded with a computer–based acquisition system (Power Lab 8, ADInstruments, USA). After an equilibration period of about 60 min, the contractions induced by electrical field stimulation were stable. At this time, cumulative concentration response curves to agonists were constructed (0.5 log unit steps). Antagonists were injected into the baths 15 minutes before constructing agonist concentration response curves.
Data are expressed as mean±SEM or with confidence intervals as appropriate. For more than 2 groups, data are analysed using ANOVA with post-hoc testing using Dunnett’s or Bonferroni’s test as appropriate. Where there are only 2 groups paired or unpaired t-tests were used. P values of less than 0.05 were considered significant. All curve fitting was accomplished using Graphpad-Prism (V6). […] In gpI experiments the antagonist potency (pKb) is calculated from the rightward shift of the agonist concentration response curve by a fixed antagonist concentration.

The test system of a further series is rats. The series is described as follows: Rota-rod test after intrathecal infusion. In kind it is in vivo, rat. Particulars: same range of doses (0.1–1 nmol), data not shown. As for the experimental part:
For all the experiments described below, male Sprague-Dawley rats (Harlan, Varese, Italy), weighing approximately 280-300g at the beginning of the experimental procedure, were used. Animals were housed in CeSAL (Centro Stabulazione Animali da Laboratorio, University of Florence) and used at least one week after their arrival. One rat was housed per cage (size 26x41 cm); animals were fed with standard laboratory diet and tap water ad libitum, and kept at 23±1°C with a 12 h light/dark cycle, light at 7 a.m. […] All animals were monitored daily using a scoring system (based on: Appearance, Food and Water Intake, Clinical Signs, Natural Behaviour and Provoked Behaviour. Maximum score is 20 and animals reaching 10 are euthanized. In the experiments reported here no animals reached this score and none died before the end of the experiment) and at the end of the experiment were euthanized by CO2 overdose. […]
Rota-rod apparatus (Ugo Basile, Varese, Italy) consisted of a base platform and a rotating rod with a diameter of 6 cm and a non-slippery surface. […] The integrity of motor coordination was assessed on the basis of the number of falls from the rod in 60s measured 15, 30, 45, 60, 90, 120 and 180 min after treatments.
Background: The rotarod test checks motor coordination on a turning rod.

Series [3] addresses T3, human NOP receptor (NOP-RLuc/β-arrestin 2-RGFP) (Homo sapiens, UniProt P41146).
T3 construct: expressed in transfected cells; host or cells: HEK-293 (retroviral expression; whole cells)
Description: BRET NOP-RLuc/β-arrestin 2-RGFP interaction, HEK-293 cells. Type of series: cell-based. Particulars: BRET, HEK-293 cells, room temperature; at least 4 experiments in duplicate. In general terms: BRET reads energy transfer from a luciferase to a nearby fluorophore.

Series [4] deals with human NOP receptor (NOP-RLuc/Gβ1-RGFP) (Homo sapiens, UniProt P41146). The series is described as follows: biochemical. In kind it is biochemical.
human NOP receptor (NOP-RLuc/Gβ1-RGFP), sequence (P41146 whole entry, looked up): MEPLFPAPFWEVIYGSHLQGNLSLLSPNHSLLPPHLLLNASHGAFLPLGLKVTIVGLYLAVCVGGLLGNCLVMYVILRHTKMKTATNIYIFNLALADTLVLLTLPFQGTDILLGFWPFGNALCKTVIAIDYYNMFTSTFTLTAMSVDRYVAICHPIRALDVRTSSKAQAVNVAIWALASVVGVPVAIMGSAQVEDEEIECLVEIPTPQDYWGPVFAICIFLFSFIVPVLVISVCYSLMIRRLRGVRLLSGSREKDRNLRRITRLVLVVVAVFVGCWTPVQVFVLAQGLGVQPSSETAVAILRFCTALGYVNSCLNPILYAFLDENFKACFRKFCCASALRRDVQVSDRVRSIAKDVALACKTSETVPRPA
For a further series, the target named is T4, human NOP receptor (Homo sapiens, UniProt P41146).
T4 construct: expressed in transfected cells; host or cells: CHO
T4 sequence (P41146 whole entry): as the sequence (P41146 whole entry, looked up) above
The series is described as follows: Calcium mobilisation, CHO cells with NOP and Gαqi5. In kind it is cell-based. The note with it: calcium mobilisation, CHO cells with human NOP and Gαqi5, Fluo-4 AM, 37°C; at least 3 experiments in duplicate. For orientation: Calcium assays in cells follow changes in intracellular calcium, usually with a dye or a luminescent sensor.

The target in series [5] is T5, Mu receptor (CHOhMu cells) (Homo sapiens, UniProt P35372).
T5 construct: expressed in transfected cells; host or cells: CHO (Chinese Hamster Ovary)
T5 sequence (P35372 whole entry): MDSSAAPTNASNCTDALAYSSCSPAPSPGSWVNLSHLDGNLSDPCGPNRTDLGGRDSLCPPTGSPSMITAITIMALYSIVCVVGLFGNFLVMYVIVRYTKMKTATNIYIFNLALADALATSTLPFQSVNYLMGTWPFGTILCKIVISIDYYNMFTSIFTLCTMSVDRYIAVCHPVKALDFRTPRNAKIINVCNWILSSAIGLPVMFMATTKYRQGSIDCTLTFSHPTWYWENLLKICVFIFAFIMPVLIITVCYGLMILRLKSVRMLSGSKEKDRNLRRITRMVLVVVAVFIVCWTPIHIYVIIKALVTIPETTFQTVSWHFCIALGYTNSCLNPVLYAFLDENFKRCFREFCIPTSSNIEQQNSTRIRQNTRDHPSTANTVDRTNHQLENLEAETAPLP
The series is described as follows: cAMP assay, forskolin-stimulated CHOhMu whole cells. In kind it is cell-based. Particulars: forskolin 1μM, mean (±SEM). As for the experimental part: (§1) CHOhMu and CHOhNOP whole cells were suspended in Krebs/HEPES buffer, containing isobutylmethylxanthine (1mM) and forskolin (1μM).

The target in series [6] is T6, NOP receptor (CHOhNOP cells) (Homo sapiens, UniProt P41146).
T6 construct: expressed in transfected cells; host or cells: CHO (Chinese Hamster Ovary)
T6 sequence (P41146 whole entry): as the sequence (P41146 whole entry, looked up) above
Description: cAMP assay, forskolin-stimulated CHOhNOP whole cells. In kind it is cell-based. Particulars: forskolin 1μM, mean (±SEM). As for the experimental part: as §1

Another series deals with rat. The note with it: in vivo; cited from earlier work.
A further series concerns monkey. Particulars: monkey tail withdraw assay; cited from earlier work.
[7] abbreviates: antagonist 15 minutes before agonist curve, from rightward shift, read-out: antagonist potency pKb against DeNo (converted).

Entries after “also recorded” stand apart in the source; their conditions may differ. Like-named read-outs stand apart in the source and are kept apart here.

T1 sequence (P35372 whole entry): as the sequence (P35372 whole entry) above
T3 sequence (P41146+P27652 fused): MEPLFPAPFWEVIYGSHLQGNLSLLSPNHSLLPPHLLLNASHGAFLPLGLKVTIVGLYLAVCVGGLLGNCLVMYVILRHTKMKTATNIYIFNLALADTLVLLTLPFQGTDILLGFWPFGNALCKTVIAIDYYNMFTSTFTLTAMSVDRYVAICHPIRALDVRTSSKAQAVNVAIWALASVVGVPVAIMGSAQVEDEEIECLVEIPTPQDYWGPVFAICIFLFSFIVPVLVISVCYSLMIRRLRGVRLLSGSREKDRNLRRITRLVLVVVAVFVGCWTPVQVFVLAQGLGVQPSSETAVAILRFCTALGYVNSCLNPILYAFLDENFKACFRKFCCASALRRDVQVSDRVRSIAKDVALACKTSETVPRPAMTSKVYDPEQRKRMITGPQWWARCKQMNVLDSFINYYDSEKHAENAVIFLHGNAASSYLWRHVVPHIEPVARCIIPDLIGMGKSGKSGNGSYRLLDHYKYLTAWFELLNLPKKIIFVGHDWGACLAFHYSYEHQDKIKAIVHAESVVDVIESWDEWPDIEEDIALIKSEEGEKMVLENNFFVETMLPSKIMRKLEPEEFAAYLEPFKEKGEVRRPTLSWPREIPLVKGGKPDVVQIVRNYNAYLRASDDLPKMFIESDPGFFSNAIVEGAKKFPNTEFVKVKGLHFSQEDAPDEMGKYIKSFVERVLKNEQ
T3 sequence (P32121 whole entry partner): as the sequence (P32121 whole entry partner) above

For `CC(C)C[C@H](NC(=O)[C@H](CCCCN)NC(=O)[C@H](CCCNC(=N)N)NC(=O)[C@H](C)NC(=O)[C@H](CO)NC(=O)[C@H](CCCCN)NC(=O)[C@H](CCCNC(=N)N)NC(=O)[C@H](C)NC(=O)CNC(=O)[C@@H](NC(=O)[C@H](Cc1ccccc1)NC(=O)CNC(=O)CNC(=O)[C@@H](N)Cc1ccccc1)[C@@H](C)O)C(=O)N[C@@H](C)C(=O)N[C@@H](CC(N)=O)C(=O)N[C@@H](CCC(N)=O)C(=O)O` [N/OFQ, nociceptin/orphanin FQ], on human Mu receptor (% over basal fluorescence, CHO cells with human Mu and Gαqi5), the “Mu Emax ± SEM” value is reported as “Inactive”. Also, the “Mu pEC50 (CL95%)” value at human Mu receptor (CHO cells with human Mu and Gαqi5, Fluo-4 AM, 37°C) is reported as “Inactive”. Further, the “β-arrestin 2 Mu pEC50 (CL95%)” value in series [1] was “inactive”.
Take `Cc1cccc2c1CC[C@H](CN1CCC(c3c(Cl)cccc3Cl)CC1)C[C@@H]2O` [SB-612111]: the Kb in [2] (antagonist 100 nM, 15 minutes before agonist curve, from rightward shift, read-out: antagonist potency pKb against N/OFQ (converted)) is 4.37 nM; in series [2] (setting [7]), 85.1 nM.
One may read the Emax as the maximal effect, on the per cent scale that the assay sets. With `C[C@@H](NC(=O)[C@@H](N)Cc1ccc(O)cc1)C(=O)N[C@@H](Cc1ccccc1)C(=O)NCC(=O)N[C@@H](Cc1ccc(O)cc1)C(=O)N1CCC[C@H]1C(=O)N[C@@H](CO)C(N)=O` [dermorphin], the “animal performance in the rotarod test” value in the series on rats was “impaired animal performance in the rotarod test”. Besides, at human Mu receptor (% over basal fluorescence, CHO cells with human Mu and Gαqi5, SEM), the Emax is 234 ± 14%. The “β-arrestin 2 NOP pEC50 (CL95%)” value in [3] was “completely inactive”. Moreover, the “Gβ1-protein NOP pEC50(CL95%)” value in series [4] is reported as “very weak only increasing BRET ratio at micromolar concentrations; also recorded: crc incomplete”. In addition, the “NOP pEC50 (CL95%)” value at human NOP receptor is “crc incomplete”.
In the case of `C=C[C@@]1(C)CC(=O)[C@]2(O)[C@@]3(C)[C@@H](O)CCC(C)(C)[C@@H]3[C@H](O)[C@H](OC(C)=O)[C@@]2(C)O1` [forskolin], the “increase in cAMP production compared to basal, CHOhMu” value in series [5] is listed as 24.3 (±1.79) fold. For the same compound, in [6], the “increase in cAMP production compared to basal, CHOhNOP” value is 21.23 (±3.86) fold.
Take `CN1CC[C@]23c4c5ccc(O)c4O[C@H]2[C@@H](O)C=C[C@H]3[C@H]1C5` [morphine]: in the series with rat, the time to tolerance was 11 days.
With `C=CCN1CC[C@]23c4c5ccc(O)c4O[C@H]2C(=O)CC[C@@]3(O)[C@H]1C5` [naloxone, Naloxone], the Kb in [2] (setting [7]) was 28.8 nM; in series [2] (read-out: antagonist potency pKb against dermorphin (converted), antagonist 15 minutes before agonist curve, from rightward shift) it was 2.69 nM. Further, the “antagonist potency pKb against N/OFQ” value in [2] (antagonist 100 nM, 15 minutes before agonist curve, from rightward shift) was “does not affect the inhibitory action of N/OFQ”.
Consider [Dmt^1]N/OFQ(1–13)-NH2, for which the “increase in potency over N/OFQ” value with monkey is 30 fold.

The values above are taken from PMC4896453 (PLoS ONE, 2016).
